From PubChem BioAssay (NCI)
“And” between values parts separate entries of the source, which are not always exact repeats. Identical values can stand only once.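 1) Cells in 96-well plates. 2) Compound, 48 h, 5 concentrations. 3) Linear interpolation between surrounding doses. 4) Unreached endpoint = highest concentration. At the GI50, growth is halved. TGI marks complete inhibition of growth.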

Tests used:
Test in all cases: DTP human tumour cell line panel, 48 h
HCT-15 colon = test system: HCT-15 colon
IGROV1 ovarian = test system: IGROV1 ovarian
MALME-3M melanoma = test system: MALME-3M melanoma
OVCAR-3 ovarian = test system: OVCAR-3 ovarian
SF-268 CNS = test system: SF-268 CNS
SK-MEL-28 melanoma = test system: SK-MEL-28 melanoma
HCT-116 colon = test system: HCT-116 colon
NCI-H522 lung = test system: NCI-H522 lung
BT-549 breast = test system: BT-549 breast
NCI/ADR-RES ovarian = test system: NCI/ADR-RES ovarian

Compound | TGI (HCT-15 colon) | TGI (IGROV1 ovarian) | TGI (MALME-3M melanoma) | TGI (OVCAR-3 ovarian) | TGI (SF-268 CNS) | TGI (SK-MEL-28 melanoma) | TGI (HCT-116 colon) [µM] | TGI (NCI-H522 lung) | GI50 (HCT-15 colon) [µM] | GI50 (IGROV1 ovarian) [µM] | GI50 (MALME-3M melanoma) [µM] | GI50 (SF-268 CNS) [µM] | GI50 (SK-MEL-28 melanoma) [µM] | TGI (BT-549 breast) [µM] | GI50 (HCT-116 colon) [µM] | GI50 (NCI-H522 lung) [µM] | TGI (NCI/ADR-RES ovarian) [µM] | GI50 (OVCAR-3 ovarian) [µM] | GI50 (BT-549 breast) [µM] | GI50 (NCI/ADR-RES ovarian) [µM]
COc1cc(OC)c(C(=O)c2cccs2)cc1N | > 100 µM | > 100 µM | > 100 µM | > 100 µM | > 100 µM | > 100 µM |  |  |  |  |  |  |  |  |  |  |  |  |  | 
CN1CN(C2OC(CO)C(O)C2O)c2nc(N)[nH]c(=O)c21 (centres undefined) | > 100 µM | > 100 µM | > 100 µM | > 100 µM | > 100 µM |  | > 100 | 38.5 µM |  |  |  |  |  |  |  |  |  |  |  | 
CCOC(=O)C(=O)Nc1nc2c(OCC)cccc2s1 | > 100 µM | > 100 µM | > 100 µM | > 100 µM | > 100 µM | > 100 µM | > 100 | > 100 µM |  |  |  |  |  |  |  |  |  |  |  | 
O=S(=O)([O-])c1ccc(N=Cc2ccccc2[O-])cc1.O=S(=O)([O-])c1ccc(N=Cc2ccccc2[O-])cc1.[Co+2] | > 100 µM | > 100 µM | > 100 µM |  | 79.3 µM | > 100 µM |  |  | > 100 | > 100 | > 100 | 20.7 | 59.5 |  |  |  |  |  |  | 
CN(C)CCN1C(=O)c2cccc3cc([N+](=O)[O-])cc(c23)C1=O | 4.2 µM | 4.49 µM | 1.84 µM | 6.27 µM | 3.12 µM | 6.85 µM | 6.7 | 2.12 µM |  |  |  |  |  | 7.62 |  |  |  |  |  | 
CC(C)C12Cc3c(ccc4ccccc34)OC1(C)Oc1ccc3ccccc3c1C2 (centres undefined) |  | > 100 µM | > 100 µM | > 100 µM | > 100 µM |  | > 100 | > 100 µM |  |  |  |  |  |  |  |  |  |  |  | 
N/N=C1\C(=O)N(Cc2ccccc2)C(=O)C1C(=O)NCc1ccccc1 (centres undefined) | > 100 µM | > 100 µM | > 100 µM | > 100 µM | > 100 µM | > 100 µM | > 100 | > 100 µM |  |  |  |  |  |  |  |  |  |  |  | 
CSCS(=O)C[C@H](CO)NC(=O)/C=C/c1c(C)[nH]c(=O)[nH]c1=O (some centres undefined) | 13.6 µM and 6.92 µM | 9.35 µM and 14.1 µM | 3.08 µM and 2.05 µM | 4.63 µM and 3.98 µM | 3.86 µM and 1.37 µM | 7.94 µM and 3.51 µM |  | 3.3 µM and 2.36 µM | 2.93 | 1.78 | 1.08 | 0.571 | 1.89 |  | 3.16 | 1.35 | 6.07 | 1.89 |  | 
Cc1ccc(-c2nc3ccccc3c(=O)n2NCC2(O)OCC(O)C(O)C2O)cc1 (centres undefined) | > 100 µM |  | > 100 µM | > 100 µM | > 100 µM | > 100 µM | > 100 | > 100 µM |  |  |  |  |  |  |  |  |  |  |  | 
COC(OC)c1cc2c(cc1C=O)OCO2 |  | > 100 µM | 96.5 µM | > 100 µM | > 100 µM | > 100 µM | > 100 | > 100 µM |  |  |  |  |  |  |  |  |  |  |  | 
N.N.N.N.N.NC(=O)[O-].[Co+3].[I-] | > 100 µM | > 100 µM | > 100 µM | > 100 µM | > 100 µM | > 100 µM | > 100 | > 100 µM | > 100 | > 100 | > 100 | > 100 | > 100 |  | > 100 | > 100 |  | > 100 |  | 
Cc1cccc(-n2c(N)c(-c3nc4ccccc4[nH]3)sc2=S)c1 | 62.3 µM | 78 µM | 74.4 µM | 62.1 µM | > 100 µM | > 100 µM |  | 75.7 µM |  |  |  |  |  |  |  |  |  |  |  | 
CC(CC(=O)N1C(=O)C(C)(C)[C@@H](O)[C@H]1CC(C)C(Cl)(Cl)Cl)C(Cl)(Cl)Cl (some centres undefined) | > 100 µM | > 100 µM | > 100 µM | > 100 µM | > 100 µM |  | > 100 | > 100 µM |  |  |  |  |  |  |  |  |  |  |  | 
CCC[CH2][Sn]([CH2]CCC)([O]c1cccc2cccnc12)[O]c1cccc2cccnc12 | 0.339 µM | 2.27 µM |  | 0.324 µM | 0.575 µM | 0.332 µM | 0.385 |  | 0.167 | 1 |  | 0.203 | 0.146 |  | 0.189 |  |  | 0.167 |  | 
CCCc1n(Cc2ccc3ccccc3c2)cc[n+]1Cc1ccc2ccccc2c1 | 16.1 µM | 2.42 µM | 2.58 µM |  | 2.52 µM | 2.52 µM | 2.17 | 1.69 µM | 3.69 | 0.779 | 0.876 | 1.08 | 1.06 | 2.16 | 0.971 | 0.378 | 44.3 |  | 0.772 | 17.1
CC(C)N(O)C(=N)c1ccccc1 |  |  |  |  | > 100 µM | > 100 µM | > 100 | > 100 µM |  |  |  |  |  |  |  |  |  |  |  | 
CC1CCN(Cc2ccc(NC(=O)c3cc4ccc5cccnc5c4[nH]3)cc2)CC1 | 18.5 µM | 54.1 µM | 3.72 µM | 39.2 µM | 40.9 µM | 3.49 µM | 19.6 |  | 3.07 | 6.15 | 2.05 | 7.07 | 1.79 | 24.3 | 4.18 |  | 68.9 | 7.83 | 10.8 | 17.3
COc1ccc(/C=C2\CN(C(=O)C(Cl)Cl)C/C(=C\c3ccc(OC)cc3)C2=O)cc1 | 1.52 µM |  | 4.61 µM |  | > 100 µM |  | 0.653 |  | 0.337 |  | 1.92 | 2.95 |  | 8.13 | 0.234 |  | 15.1 |  | 2.19 | 2
Cc1n[nH]c(=S)n(C)c1=S | > 100 µM | > 100 µM | > 100 µM | > 100 µM | > 100 µM | > 100 µM | > 100 | > 100 µM |  |  |  |  |  |  |  |  |  |  |  | 
COc1cc(-c2nccc3cc(OC)c(OC)cc23)ccc1O | 96.1 µM | > 100 µM | > 100 µM | > 100 µM |  | > 100 µM | > 100 | > 100 µM |  |  |  |  |  |  |  |  |  |  |  | 
N#CC12CCC1C1CCCCC12N1CCSCC1 (centres undefined) | > 100 µM | > 100 µM |  | > 100 µM |  | > 100 µM | > 100 |  |  |  |  |  |  |  |  |  |  |  |  | 
NC(=NCc1ccccc1)C(N=Nc1ccccc1)C(=O)NCc1ccccc1 (centres undefined) | 67.3 µM | 19.8 µM | 48.2 µM | 3.75 µM | 6.44 µM | 45.7 µM | 3.47 |  | 8.19 | 3.42 | 21.5 | 2.53 | 20.4 |  | 1.76 |  | 23.8 | 1.93 |  | 6.46
